The data set in a line: Plasma pharmacokinetic profile of CBD after a single topical dose to CD-1 mice (In-life Study 1901002-01, LC-MS/MS). Type of data set: in vivo. The following applies: single topical dose 0.1 mL, mouse plasma. How it is done: The objective of this study was to determine the plasma pharmacokinetic (PK) profile of test article cannabidiol (CBD) following the administration of a single topical dose to CD-1 mice. The work was conducted at Alliance Pharma with a title of In-life Study 1901002-01. Although the in-life study was not intended to be conducted in compliance with Good Laboratory Practice regulations, the study was conducted in accordance with Alliance Pharma's IACUC (Institutional Animal Care and Use Committee) Protocol No. 2016-02_V4 and Alliance Pharma's standard operating procedures (SOPs). In addition, the pharmacokinetic analyses of mouse plasma samples were conducted in accordance with Alliance Pharma SOPs.
A total of 72 mouse (CD-1) plasma samples were transferred from Alliance Pharma's in-life facility located in Malvern, Pa. to the Bioanalytical department for pharmacokinetic analysis. The concentration of CBD in these 72 plasma samples was measured using high-performance liquid chromatography (HPLC) with tandem mass spectrometry (MS/MS) detection.
In-life Study Design: In-life Study 1901002-01 was performed at the in-life testing facility at Alliance Pharma. Four (4) groups of 21 CD-1 mice each (84 total) were administered a single topical dose of CBD. Mice in Group 1 were administered Formulation A at a strength of 2.5% CBD. Mice in Group 2 were administered Formulation B at the same strength of 2.5% CBD. Mice in Group 3 were administered Formulation C at a strength of 5% CBD, and mice in Group 4 were administered Formulation C at a strength of 2.5% CBD. The treatment scheme is summarized below.
Animals in each group received topical administration of either 2.5% o 5% CBD using a 1 ml syringe to draw up exactly 100 μl. Compound was applied in the shaved area only. Each group received a different formulation of the compound.
Sample Collection, Processing, and Shipment: Blood samples were collected at the in-life facility at the following time points: 0.25, 0.5, 1, 2, 4, and 8 hours post-dose from 72 mice in Groups 1 through 4 (18 from each treatment group). Target volume was less than or equal to 0.2 ml. The blood was collected via trunk puncture into tubes using K2 EDTA as an anticoagulant. The collected blood samples were kept on wet ice before being centrifuged. Blood samples were centrifuged as soon as possible after blood collection at approximately 10,000 rpm for about 10 minutes to separate the plasma. Approximately 0.2 mL of each plasma sample was transferred into labeled Eppendorf tubes. Each tube was stored in a freezer set to −20° C. or lower. No blood was collected from 12 (3 from each treatment group) of the 84 mice enrolled in the in-life study; thus, the total number of plasma samples that were transferred to the Alliance Pharma Bioanalytical department for bioanalysis was 72.
Assay Procedures: For analysis of CBD, a 25-μL aliquot of each study sample was mixed with 25 μL of acetonitrile/water (50:50, v/v). Samples were then extracted by protein precipitation using acetonitrile containing the internal standard, tolbutamide (25 ng/mL). A portion of the supernatant was diluted in deionized water and used for the analysis of CBD.
Data Acquisition and Processing: The LC-MS/MS data acquisition was performed on a Shimadzu Nexera X2 LC system coupled with an AB SCIEX Triple Quad 5500 mass spectrometer. Chromatograms were integrated using Analyst 1.6.2 software. A weighted (1/x^2, x=concentration) linear regression was used to generate the calibration curve for CBD. The concentration of CBD was calculated using the peak area ratio of analyte to internal standard based on the standard curve. Mean, standard deviation, precision, accuracy, and assay variability were calculated using Microsoft Excel software.
Pharmacokinetic Analysis: Software—The PK parameters were determined using a non-compartmental analysis tool, namely, Phoenix WnNonlin 6.3 software (Pharsight Corporation, St. Louis, Mo.). […]

The mark [1] stands for this setting: Group 1, AEM.CBD.006 Formulation A 2.5% CBD, mean dose 78.69 mg/kg.
Setting [2] is: Group 2, AEM.CBD.007 Formulation B 2.5% CBD, mean dose 76.61 mg/kg.
The mark [3] stands for this setting: Group 3, KBM.CBD.010 Formulation C 5% CBD, mean dose 155.24 mg/kg.
Where [4] appears, read: Group 4, KBM.CBD.011 Formulation C 2.5% CBD, mean dose 75.76 mg/kg.

Each structure is given as a SMILES string.

Consider `C=C(C)[C@@H]1CCC(C)=C[C@H]1c1c(O)cc(CCCCC)cc1O` [Cannabidiol], for which, under setting [1], the AUCinf worked out at 1865 ng·h/mL, the AUClast came to 1758 ng·h/mL, the Cmax (commonly the maximum level reached in the sampled fluid or tissue) came to 427.149 ng/mL and the t1/2 is 1.78 h. Further, the tmax under setting [1] was 2.00 h. In addition, under setting [2], the AUCinf was 1647 ng·h/mL, the AUClast was found to be 1563 ng·h/mL, the Cmax is 360.351 ng/mL and the t1/2 is 1.70 h. Under setting [2], the tmax amounted to 2.00 h. Besides, under setting [3], the AUCinf worked out at 3533 ng·h/mL, the AUClast came out at 3067 ng·h/mL, the Cmax is given as 602.168 ng/mL and the tmax turned out to be 4.00 h. Under setting [4], the AUCinf stood at 1514 ng·h/mL, the AUClast came to 1410 ng·h/mL, the Cmax is 331.560 ng/mL and the t1/2 is 1.92 h. Besides, the tmax under setting [4] is 1.00 h.

Source of the values: patent publication US11026896B2, “Transdermal penetrant formulations containing cannabidiol” (AMPERSAND BIOPHARMACEUTICALS, INC., priority 2019, dated 2021).
